Source: BigSolDB 2.1

O=C(O)c1ccc(C(=O)O)o1
solubility (mole fraction)
Settings | in MIBK | in acetic acid | in acetonitrile | in isobutanol | in methanol | in methyl acetate | in n-butanol | in water
313.15 K | 0.000136 | 0.000235 | 6.11e-05 | 0.00168 | 0.00428 | 7.78e-05 | 0.00266 | 0.000203
318.15 K | 0.000184 | 0.000272 | 9.15e-05 | 0.00198 | 0.00489 | 0.000113 | 0.00302 | 0.000225
323.15 K | 0.000253 | 0.000331 | 0.000112 | 0.0023 | 0.0054 | 0.000164 | 0.00346 | 0.000283
328.15 K | 0.000296 | 0.000404 | 0.000136 | 0.0027 | 0.0068 | 0.000238 | 0.00408 | 0.00037
333.15 K | 0.000338 | 0.000478 | 0.000166 | 0.00323 | 0.00801 | 0.000285 | 0.00469 | 0.000421
338.15 K | 0.000429 | 0.000555 | 0.000212 | 0.00372 | 0.00869 | 0.000377 | 0.00524 | 0.000465
343.15 K | 0.000536 | 0.000717 | 0.000248 | 0.00412 | 0.00894 | 0.000464 | 0.00572 | 0.000598
348.15 K | 0.000631 | 0.00082 | 0.000278 | 0.00482 | – | 0.000549 | 0.00663 | 0.000641
353.15 K | 0.000666 | 0.000965 | 0.000341 | 0.00548 | – | 0.00062 | 0.00741 | 0.000781
358.15 K | 0.000721 | 0.00115 | 0.000409 | 0.00607 | – | 0.000659 | 0.0082 | 0.000908
363.15 K | 0.000863 | 0.00134 | 0.000487 | 0.00682 | – | 0.000721 | 0.00916 | 0.0011
